Converted amounts (≈) assume the structure as drawn.
Key:
Assay type in all cases: physicochemical
[1] = Solubility in acetate buffer (25 mM, pH 5), assayed by HPLC; conditions: 25 °C, pH 5, aqueous buffer, thermodynamic from solid; for solubility at 5 day: Day 5; for solubility at 7 day: Day 7
Description: (§1) Form 1 (˜25 mg) and acetate buffer (25 mM, pH 5, 4 mL), prepared with and without sodium chloride (ionic strength adjusted to=0.1M), were placed in a glass vial which was sealed and placed on a laboratory rotator in a 25° C. incubator. After 1, 5, and 7 days the samples were filtered and assayed by HPLC.
as §1, with “Form 2” for “Form 1”

[2] = Gravimetric vapor sorption (GVS) study; conditions: at high humidity
Text: FIG. 12 illustrates a GVS study of form 1 and form 2. […] This property of decreased hygroscopicity greatly aids in the preparation of solid pharmaceutical dosage forms.

[3] = Solid held in equilibrium with its saturated solvent solution at 60° C.; conditions: saturated acetone solution, 6 days
[4] = Drug substance stability of packaged solid; conditions: 1 month, double LDPE bags inside HDPE container
Description: Form 2 of 2-(5-bromo-4-(4-cyclopropylnaphthalen-1-yl)-4H-1,2,4-triazol-3-ylthio)acetate was tested under various conditions to determine drug substance stability. […] Packaging was in a double low density polyethylene plastic bags inside a HDPE container.

Row | SMILES | solubility at 5 day ([1]; pH 5, NaCl (I = 0.1)) [µg/mL] | solubility at 7 day ([1]; pH 5, NaCl (I = 0.1)) [µg/mL] | solubility at 1 day ([1]; pH 5, No NaCl, Day 1) [µg/mL] | solubility at 5 day ([1]; pH 5, No NaCl) [µg/mL] | solubility at 7 day ([1]; pH 5, No NaCl) [µg/mL] | adsorption (hygroscopicity) by GVS [2] [% w/w] | outcome of equilibration with saturated solution [3] | degradation of packaged drug substance ([4]; 25° C.-60% RH) | degradation of packaged drug substance ([4]; 40° C.-75% RH)
1 | O=C(O)CSc1nnc(Br)n1-c1ccc(C2CC2)c2ccccc12 [Form 1, 2-(5-bromo-4-(4-cyclopropylnaphthalen-1-yl)-4H-1,2,4-triazol-3-ylthio)acetic acid] | 257 (≈ 635 µM) | 304 (≈ 753 µM) | 265 (≈ 656 µM) | 213 (≈ 528 µM) | 157 (≈ 388 µM) | < 0.2 | decomposition |  | 
2 | O=C(O)CSc1nnc(Br)n1-c1ccc(C2CC2)c2ccccc12 [Form 2, 2-(5-bromo-4-(4-cyclopropylnaphthalen-1-yl)-4H-1,2,4-triazol-3-ylthio)acetic acid] |  |  |  |  |  | < 0.1 |  | No degradation | No degradation

Reference: patent publication US9956205B2, “Polymorphic forms of 2-(5-bromo-4-(4-cyclopropylnaphthalen-1-yl)-4H-1,2,4-triazol-3-ylthio)acetic acid and uses thereof” (Ardea Biosciences, Inc., priority 2010, dated 2018)
